In ChEMBL document CHEMBL3588817, “Discovery of 4,5,6,7-Tetrahydrobenzo[1,2-d]thiazoles as Novel DNA Gyrase Inhibitors Targeting the ATP-Binding Site” (J Med Chem, 2015):
≈ marks a conversion by molar mass, not a printed value.

Tests used:
[1] = Inhibition of Escherichia coli DNA Gyrase ATPase activity assessed as reduction in conversion of NADH to NAD+ using linear pBR322 substrate
DNA gyrase [2] = target: DNA gyrase (Staphylococcus aureus, UniProt P0A0K8+P20831); test: Inhibition of Staphylococcus aureus DNA gyrase using relaxed pNO1 plasmid and biotinylated oligonucelotide incubated for 30 mins by fluorescence based DNA super-coiling assay; type: protein-complex assay
[3] = Inhibition of Escherichia coli DNA topoisomerase 4 using relaxed pNO1 plasmid and biotinylated oligonucelotide incubated for 30 mins by fluorescence based DNA relaxation assay
Topoisomerase IV = Topoisomerase IV (Staphylococcus aureus, UniProt P0C1S7+P0C1U9); test: Inhibition of Staphylococcus aureus DNA topoisomerase 4 using relaxed pNO1 plasmid and biotinylated oligonucelotide incubated for 30 mins by fluorescence based DNA relaxation assay; type: protein-complex assay
Escherichia coli [4] = test: Antibacterial activity against wild type Escherichia coli ATCC 25922 by broth microdilution method; type: functional
Escherichia coli [5] = test: Antibacterial activity against efflux deficient Escherichia coli tolC::Tn10 lacking functional tolC gene by broth microdilution method
Escherichia coli [6] = test: Antibacterial activity against Escherichia coli imp4213::Tn10 by broth microdilution method; type: functional
Escherichia coli [7] = test: Antibacterial activity against wild type Escherichia coli ATCC 25922 assessed as inhibition of microbial growth at 50 uM by broth microdilution method; type: functional; conditions: read-out: GI
Pseudomonas aeruginosa [8] = test: Antibacterial activity against Pseudomonas aeruginosa ATCC 27853 assessed as inhibition of microbial growth at 50 uM by broth microdilution method; type: functional; conditions: read-out: GI
Enterococcus faecalis [9] = test: Antibacterial activity against Enterococcus faecalis ATCC 29212 assessed as inhibition of microbial growth at 50 uM by broth microdilution method; type: functional; conditions: read-out: GI
Staphylococcus aureus [10] = test: Antibacterial activity against Staphylococcus aureus 25923 assessed as inhibition of microbial growth at 50 uM by broth microdilution method; type: functional; conditions: read-out: GI
Escherichia coli [11] = test: Antibacterial activity against wild type Escherichia coli ATCC 25922 assessed as inhibition of microbial growth by broth microdilution method; type: functional
Pseudomonas aeruginosa [12] = test: Antibacterial activity against Pseudomonas aeruginosa ATCC 27853 assessed as inhibition of microbial growth by broth microdilution method; type: functional
Enterococcus faecalis [13] = test: Antibacterial activity against Enterococcus faecalis ATCC 29212 assessed as inhibition of microbial growth by broth microdilution method; type: functional
Staphylococcus aureus [14] = test: Antibacterial activity against Staphylococcus aureus 25923 assessed as inhibition of microbial growth by broth microdilution method; type: functional
DNA gyrase [15] = target: T1, DNA gyrase (Escherichia coli, UniProt P0AES4+P0AES6); test: Binding affinity to Escherichia coli DNA gyrase subunit B N-terminal 24 kDa domain by SPR assay; type: protein-complex assay
DNA gyrase [16] = target: T1, DNA gyrase; test: Inhibition of Escherichia coli DNA gyrase using relaxed pNO1 plasmid and biotinylated oligonucelotide incubated for 30 mins by fluorescence based DNA super-coiling assay; type: protein-complex assay
[17] = target: DNA gyrase (Staphylococcus aureus) (UniProt P0A0K8+P20831); test: Inhibition of Staphylococcus aureus DNA gyrase assessed as residual enzyme activity at 100 uM using relaxed pNO1 plasmid and biotinylated oligonucelotide incubated for 30 mins by fluorescence based DNA super-coiling assay; type: protein-complex assay
Escherichia coli [18] = test: Inhibition of Escherichia coli DNA topoisomerase 4 assessed as residual enzyme activity at 100 uM using relaxed pNO1 plasmid and biotinylated oligonucelotide incubated for 30 mins by fluorescence based DNA relaxation assay
[19] = target: Topoisomerase IV (Staphylococcus aureus) (UniProt P0C1U9+P0C1S7); test: Inhibition of Staphylococcus aureus DNA topoisomerase 4 assessed as residual enzyme activity at 100 uM using relaxed pNO1 plasmid and biotinylated oligonucelotide incubated for 30 mins by fluorescence based DNA relaxation assay; type: protein-complex assay

| Compound | IC50 [1] [µM] | MIC (Escherichia coli [4]) [µg/mL] | MIC (Escherichia coli [5]) [µg/mL] | MIC (Escherichia coli [6]) [µg/mL] | MIC (Escherichia coli [11]) [µM] | MIC (Pseudomonas aeruginosa [12]) [µM] | MIC (Enterococcus faecalis [13]) [µM] | MIC (Staphylococcus aureus [14]) [µM] | Kd (DNA gyrase [15]) [µM] | IC50 (DNA gyrase [16]) [µM] | Activity [17] [%] | Activity (Escherichia coli [18]) [%] | Activity [19] [%] | IC50 (DNA gyrase [2]) [µM] | IC50 [3] [µM] | IC50 (Topoisomerase IV) [µM] | inhibition of growth at 50 µM (Escherichia coli [7]) [%] | inhibition of growth at 50 µM (Pseudomonas aeruginosa [8]) [%] | inhibition of growth at 50 µM (Enterococcus faecalis [9]) [%] | inhibition of growth at 50 µM (Staphylococcus aureus [10]) [%] |
| --- | --- | --- | --- | --- | --- | --- | --- | --- | --- | --- | --- | --- | --- | --- | --- | --- | --- | --- | --- | --- |
| O=C(O)C(=O)Nc1nc2c(s1)C[C@@H](NC(=O)c1cc(Br)c(Br)[nH]1)CC2 | 0.48 | > 256 | 256 (≈ 520 µM) | > 256 | > 125 | > 125 | > 125 | > 125 | – | – | – | – | – | 120 | 200 | 78 | < 50 | < 50 | < 50 | < 50 |
| Nc1nc2c(s1)C[C@@H](NC(=O)c1cc(Br)c(Br)[nH]1)CC2 | 25 | > 256 | 64 (≈ 152 µM) | 64 (≈ 152 µM) | > 125 | > 125 | > 125 | > 125 | 3 | 12 | 90 | 101 | 102 | – | – | – | < 50 | < 50 | < 50 | < 50 |
| O=C(O)CCC(=O)Nc1nc2c(s1)C[C@@H](NC(=O)c1cc(Br)c(Br)[nH]1)CC2 | – | > 256 | 256 (≈ 492 µM) | > 256 | > 125 | > 125 | > 125 | > 125 | 0.01 | 0.049 | – | 90 | – | 270 | – | 110 | < 50 | < 50 | < 50 | < 50 |
| O=C(O)C(=O)Nc1nc2c(s1)C[C@@H](NC(=O)c1cc(Cl)c(Cl)[nH]1)CC2 | – | > 256 | > 256 | > 256 | > 125 | > 125 | > 125 | > 125 | – | 0.59 | – | 82 | – | 300 | – | 170 | < 50 | < 50 | < 50 | < 50 |
| CCOC(=O)C(=O)Nc1nc2c(s1)C[C@@H](NC(=O)c1cc(Br)c(Br)[nH]1)CC2 | 0.57 | > 256 | 128 (≈ 246 µM) | > 256 | > 125 | > 125 | > 125 | > 125 | – | 0.1 | – | 74 | – | 80 | – | 180 | < 50 | < 50 | < 50 | < 50 |
| O=C(O)CC(=O)Nc1nc2c(s1)C[C@@H](NC(=O)c1cc(Br)c(Br)[nH]1)CC2 | – | > 256 | > 256 | > 256 | > 125 | > 125 | > 125 | > 125 | 0.042 | 0.069 | – | – | – | 86 | 74 | 76 | < 50 | < 50 | < 50 | < 50 |
| CC(=O)Nc1nc2c(s1)C[C@@H](NC(=O)c1cc(Br)c(Br)[nH]1)CC2 | – | – | – | – | > 125 | > 125 | > 125 | > 125 | – | 0.15 | – | 98 | 101 | 26 | – | – | < 50 | < 50 | < 50 | < 50 |
| CCOC(=O)C(=O)Nc1nc2c(s1)C[C@@H](NC(=O)c1cc(Cl)c(Cl)[nH]1)CC2 | – | > 256 | 256 (≈ 594 µM) | > 256 | > 125 | > 125 | > 125 | > 125 | – | 0.4 | – | – | – | 320 | 300 | 290 | < 50 | < 50 | < 50 | < 50 |

Continued, in another order:

| IC50 [1] [µM] | MIC (Escherichia coli [4]) [µg/mL] | MIC (Escherichia coli [5]) [µg/mL] | MIC (Escherichia coli [6]) [µg/mL] | MIC (Escherichia coli [11]) [µM] | MIC (Pseudomonas aeruginosa [12]) [µM] | MIC (Enterococcus faecalis [13]) [µM] | MIC (Staphylococcus aureus [14]) [µM] | Kd (DNA gyrase [15]) [µM] | IC50 (DNA gyrase [16]) [µM] | Activity [17] [%] | Activity (Escherichia coli [18]) [%] | Activity [19] [%] | Compound | IC50 (DNA gyrase [2]) [µM] | IC50 [3] [µM] | IC50 (Topoisomerase IV) [µM] | inhibition of growth at 50 µM (Escherichia coli [7]) [%] | inhibition of growth at 50 µM (Pseudomonas aeruginosa [8]) [%] | inhibition of growth at 50 µM (Enterococcus faecalis [9]) [%] | inhibition of growth at 50 µM (Staphylococcus aureus [10]) [%] |
| --- | --- | --- | --- | --- | --- | --- | --- | --- | --- | --- | --- | --- | --- | --- | --- | --- | --- | --- | --- | --- |
| 0.66 | > 256 | > 256 | > 256 | > 125 | > 125 | > 125 | > 125 | 0.049 | 0.13 | 87 | 98 | 102 | O=C(O)CC(=O)Nc1nc2c(s1)C[C@@H](NC(=O)c1cc(Cl)c(Cl)[nH]1)CC2 | – | – | – | < 50 | < 50 | < 50 | < 50 |
| – | > 256 | 32 (≈ 59.9 µM) | 64 (≈ 120 µM) | > 125 | > 125 | > 125 | > 125 | 0.15 | 0.093 | 113 | 97 | 99 | COC(=O)CCC(=O)Nc1nc2c(s1)C[C@@H](NC(=O)c1cc(Br)c(Br)[nH]1)CC2 | – | – | – | < 50 | < 50 | < 50 | < 50 |
| – | > 256 | 16 (≈ 30.8 µM) | 32 (≈ 61.5 µM) | > 125 | > 125 | > 125 | > 125 | 0.072 | 0.096 | – | – | 74 | COC(=O)CC(=O)Nc1nc2c(s1)C[C@@H](NC(=O)c1cc(Br)c(Br)[nH]1)CC2 | 110 | 86 | – | < 50 | < 50 | < 50 | < 50 |
| – | > 256 | 32 (≈ 74.2 µM) | 32 (≈ 74.2 µM) | > 125 | > 125 | > 125 | > 125 | 0.05 | 0.4 | 63 | 97 | 101 | COC(=O)CC(=O)Nc1nc2c(s1)C[C@@H](NC(=O)c1cc(Cl)c(Cl)[nH]1)CC2 | – | – | – | < 50 | < 50 | < 50 | < 50 |
| – | > 256 | 128 (≈ 253 µM) | > 256 | > 125 | > 125 | > 125 | > 125 | – | 1.7 | 71 | 97 | 98 | NC(=O)CC(=O)Nc1nc2c(s1)C[C@@H](NC(=O)c1cc(Br)c(Br)[nH]1)CC2 | – | – | – | < 50 | < 50 | < 50 | < 50 |
| – | > 256 | > 256 | > 256 | > 125 | > 125 | > 125 | > 125 | – | 0.3 | – | 72 | 97 | O=C(O)CCC(=O)Nc1nc2c(s1)C[C@@H](NC(=O)c1cc(Cl)c(Cl)[nH]1)CC2 | 10 | – | – | < 50 | < 50 | < 50 | < 50 |
| 22 | > 256 | > 256 | > 256 | > 125 | > 125 | > 125 | > 125 | – | 7.6 | 117 | 96 | 103 | O=C(O)CC(=O)Nc1nc2c(s1)C[C@@H](NC(=O)c1cc3ccccc3[nH]1)CC2 | – | – | – | < 50 | < 50 | < 50 | < 50 |
| – | > 256 | > 256 | 128 (≈ 333 µM) | > 125 | > 125 | > 125 | > 125 | – | 7.7 | 79 | 47 | 99 | O=C(O)C(=O)Nc1nc2c(s1)C[C@@H](NC(=O)c1cc3ccccc3[nH]1)CC2 | – | – | – | < 50 | < 50 | < 50 | < 50 |
